From paper PMC10419416, “Fighting Pseudomonas aeruginosa Infections: Antibacterial and Antibiofilm Activity of D-Q53 CecB, a Synthetic Analog of a Silkworm Natural Cecropin B Variant” (International Journal of Molecular Sciences, 2023)
Where two headings read alike, the source gives them in different places. Non-standard residues stand in square brackets, D forms with d. Residues, ends and D or L forms follow the SMILES beside them. No end group written: not given here.

Assays:
[1] = tested on: CCD-34Lu lung fibroblasts; experiment: in vitro; format: cell-based, human
Procedure: (§1) The peptide cytotoxicity against human cells was evaluated using CCD-34Lu-lung fibroblasts and A549-lung adenocarcinoma cells. Moreover, 6 × 10^3 cells in DMEM medium added with 10% FBS were seeded in 96-well sterile plates. After 24 h, cells were incubated with increasing concentrations of peptide (final concentrations of 5, 10, 25, 50, and 100 µM, with an additional concentration of 200 µM in CCD-34Lu) for 24 h at 37 °C (three replicates per condition). Cell viability was measured by removing the exhausted medium, adding 100 µL of DMEM and 20 µL of the MTS solution (Promega). Plates were incubated at 37 °C for 20 min until the complete conversion of the compound. The absorbance was measured at 492 nm using a microplate reader. Cell viability was calculated using the formula: Viability (%)=ODCecB−OD0/ODCtrl−OD0×100, where ODCecB is the OD in the presence of the peptide, ODCtrl is the OD of cells without the peptide, and OD0 is the background absorbance (wells with only medium and MTS compound). The experiment was performed at least twice.

in vitro = format: cell-based, human
Procedure: as §1

[2] = tested on: A549 lung adenocarcinoma cells; experiment: in vitro; format: cell-based, human
Procedure: as §1

[3] = tested on: linearized DNA (pIVEX 2.3d plasmid); experiment: Gel retardation assay, in vitro interaction with DNA; format: binding; details: 100 ng DNA, 100-500 ng peptide, RT 1 h, 1% agarose gel; all tested conditions; three experiments
Procedure: One hundred ng of linearized DNA (pIVEX 2.3d plasmid) were incubated with increasing concentrations of the L- or D-peptides (0, 100, 150, 175, 200, 250, 275, 300, 350, 400, 450, 500 ng) at RT for 1 h. Samples were run into a 1% agarose gel in TAE buffer at 50 V and visualized in a Gel Doc X3+ (Biorad, Hercules, CA, USA). DNA band intensities were measured using the Image Lab software 6.1 (Biorad, Hercules, CA, USA). The band intensity reduction was calculated as the ratio between the band intensity in the presence of peptide over that of the untreated DNA. To compare the DNA binding activities of L- and D- peptides, for each peptide amount, we determined the ratio between the band intensity reduction with D-Q53 CecB and that with L-Q53 CecB. Three experiments have been performed.

[4] = tested on: human red blood cells (hRBCs); format: cell-based; details: for MHC (minimum hemolytic concentration causing 5% hemolysis of hRBCs): red cells of human, 1 h
Procedure: The peptide hemolytic activity was evaluated against human red blood cells (hRBCs) using the Haemolysis Assay Kit (HaemoScan, Groningen, The Netherlands), following the manufacturer’s instructions. 180 μL of hRBC solution were incubated 1 h at 37 °C with 20 μL of serially diluted L- and D-CecB Q53 peptides (final concentrations of 5, 10, 25, 50, 100, 200 µM) in triplicate. As hemolysis positive and negative controls, hRBC solutions incubated, respectively, with 0.2% Triton X and PBS, were followed in parallel. After centrifugation 10 min at 10,000× g, each supernatant was diluted 1:10 in the Assay Buffer and read at 450 nm with a microplate reader.
Hemolysis was evaluated according to the following equation: Hemolysis (%)=ODCecB−OD0/ODCtrl−OD0×100, where ODCecB is the OD in the presence of the peptide, ODCtrl is the OD of treated controls (0.2% Triton X), and OD0 is the background absorbance. The experiment was performed at least twice.

[5] = tested on: T1, human neutrophil elastase; experiment: Enzymatic digestion with human neutrophil elastase, RP-HPLC; format: in vitro ADME; details: human, isolated enzyme elastase, pH 7.5
T1 construct: purchased Merck
Procedure: (§2) L- and D-Q53 CecB peptides, as well as the human LL-37 peptide (Merck, Burlington, MA, USA), were dissolved in 10 mM Tris-HCl, pH 7.5, at a final concentration of 1 mg/mL. Subsequently, 120 μL of each peptide solution were incubated at 37 °C with 20 U of human leukocyte elastase (Merck) or P. aeruginosa elastase (Elastin Products Company, Owensville, MO, USA) and 5 μL of 10 mM Tris-HCl, pH 7.5. At given time intervals (30, 60, 120, and 300 min), a volume corresponding to 30 μg of each peptide was diluted in 70 μL of 1% trifluoroacetic acid (TFA) to stop the reaction. Peptide suspensions,v without any enzyme (undigested controls), were processed in parallel. Each solution was analyzed by RP-HPLC, using a Phenomenex LC C18 analytical column (300 Å, […], 250 × 4.6 mm; Phenomenex, Torrance, CA, USA) and a Widepore C18 security guard cartridge (4 × 3.0 mm; Phenomenex, Torrance, CA, USA), in a 30 min-linear Acetonitrile (ACN) gradient (from 0% to 40% for L- and D-Q53 CecB peptides; from 20% to 60% for LL-37). A Waters Alliance 2695 Separations Module connected to a 996 PDA (Waters, Milford, MA, USA) was employed for RP-HPLC.

[6] = tested on: P. aeruginosa ATCC 27853 and ATCC 25668 strains; set-up: method as in PMID 31045339; details: planktonic forms; cited from earlier work
Source text: (§3) We, therefore, determined the anti-Pseudomonas activity of D-Q53 CecB in comparison to the L- counterpart versus the planktonic forms of the same ATCC 27853 and ATCC 25668 strains, and a third POA1-L strain (Lausanne subline).

[7] = tested on: P. aeruginosa (non-mucoid: ATCC 27853; mucoid: ATCC 25668); set-up: method as in PMID 31045339; details: planktonic forms; cited from earlier work
Source text: as §3

P. aeruginosa elastase = tested on: T2, P. aeruginosa elastase; experiment: Enzymatic digestion with P. aeruginosa elastase, RP-HPLC; format: in vitro ADME; details: isolated enzyme elastase; peptide 1 mg/mL in 10 mM Tris-HCl pH 7.5, 20 U P. aeruginosa elastase, 37 °C, 30 min, RP-HPLC C18 peak integration; read-out: % of full-length peptide
T2 construct: purchased Elastin Products Company
Procedure: as §2

trypsin = details: cited from earlier work
Source text: Recently, we characterized Q53 CecB, a natural CecB variant derived from the silkworm Bombyx mori. […] Additionally, Q53 CecB maintains an anti-Pseudomonas activity at a high saline concent ...

| Compound | cell viability ([1]; 50 µM) | cell viability ([1]; 100 µM) [%] | cell viability ([1]; 200 µM) [%] | IC50 at 24 h (in vitro) [µM] | IC50 at 24 h (in vitro; human) [µM] | cell viability ([2]; 50 µM) | cell viability ([2]; 100 µM) [%] | ratio between the DNA band intensities for D- and L-Q53 CecB [3] | mean hemolysis ([4]; 100 µM) [%] | MHC (minimum hemolytic concentration causing 5% hemolysis of hRBCs) [4] [µM] | remaining at 5 h, 1 mg/mL [5] [%] | MBC [6] [µM] | MIC [7] [µM] | remaining at 0.5 h, 1 mg/mL (P. aeruginosa elastase) [%] | antibacterial activity after trypsin treatment (trypsin) |
| --- | --- | --- | --- | --- | --- | --- | --- | --- | --- | --- | --- | --- | --- | --- | --- |
| CC[C@@H](C)[C@@H](NC(=O)[C@@H](C)NC(=O)[C@@H](CCCCN)NC(=O)[C@@H](C)NC(=O)[C@@H](CO)NC(=O)CNC(=O)[C@@H](CC(C)C)NC(=O)[C@H](NC(=O)[C@@H](CCC(N)=O)NC(=O)[C@H](NC(=O)[C@@H](C)NC(=O)[C@H]1CCCN1C(=O)CNC(=O)[C@@H](C)NC(=O)[C@@H](CCCCN)NC(=O)[C@H](NC(=O)[C@H](NC(=O)CNC(=O)[C@@H](CC(=O)O)NC(=O)[C@@H](CCCNC(=N)N)NC(=O)[C@H](NC(=O)[C@@H](CC(N)=O)NC(=O)[C@@H](CCCNC(=N)N)NC(=O)CNC(=O)[C@@H](CCSC)NC(=O)[C@@H](CCCCN)NC(=O)[C@@H](CCC(=O)O)NC(=O)[C@H](NC(=O)[C@@H](CCCCN)NC(=O)[C@@H](CCCCN)NC(=O)[C@@H](Cc1ccccc1)NC(=O)[C@H](NC(=O)[C@@H](CCCCN)NC(=O)[C@@H](Cc1c[nH]c2ccccc12)NC(=O)[C@H](N)CCCNC(=N)N)[C@H](C)CC)[C@H](C)CC)[C@H](C)CC)[C@H](C)CC)C(C)C)[C@H](C)CC)C(C)C)C(N)=O [D-Q53 CecB] (H-[dR][dW][dK][dI][dF][dK][dK][dI][dE][dK][dM]G[dR][dN][dI][dR][dD]G[dI][dV][dK][dA]G[dP][dA][dI][dQ][dV][dL]G[dS][dA][dK][dA][dI]-NH2; N-terminus and C-terminus assumed) | ~ 85% | ~27 | ~4.5 | 72.6 ± 2.81 | 68 ± 3.71 | ~ 79% | ~15 | ~ 1 | 5.9 | 100 |  |  |  |  |  |
| RWKIFKKIEKMGRNIRDGIVKAGPAIQVLGSAKAI-NH2 [L-Q53 CecB] |  |  |  |  |  |  |  |  |  | >200 | 0.3 | 11 | 2.2 | ~0.2 | lost its antibacterial activity |
